Here are results for 2 compounds from patent US20060167083A1, “Therapeutic methods and compositions involving isoflav-3-ene and isoflavan structures” (priority 2002, published 2006).

Structures are written as SMILES.

Format in all cases: biochemical
In one assay the target is T1, human topo II (Homo sapiens, UniProt P11388).
T1 construct: purchased Topogen (Columbus, Ohio)
Description: Topo II-mediated plasmid linearisation assay. On the procedure: FIG. 3 represents an assay for determining the effect of dehydroequol on double-stranded DNA cleavage. pRYG DNA was incubated with ten units of human topo II (lanes 2-6) in the absence (lane 1) or presence of 10, 30, or 100 μg/ml dehydroequol (lanes 2-4), or 30 μg/ml genistein (lane 5), or 10 μg/ml VP-16 (lane 6). Lane 7, linear pUC8 DNA marker. Double-strand DNA breakage was determined by converting relaxed (REL) or supercoiled (SC) pRYG DNA to the linear (LIN) form.
A linearisation assay was employed to determine if dehydroequol is a topo II poison. Double-strand breakage results in the appearance of linear DNA. […] This effect, which was evident at 10 μg/ml, peaked at 30 μg/ml.
Topo II poisons enhance topo II-mediated DNA cleavage and can be identified with the linearisation assay under the reaction conditions provided by the supplier of the enzyme (Topogen, Inc.). Briefly, 20-μl reaction mixtures contained 30 mM Tris-HCl, pH 7.6, 3 mM ATP, 15 mM β-mercaptoethanol, 8 mM MgCl2, 60 mM NaCl, 1 μl of the test agent (or solvent), 0.3 μg of pRYG, and 10 units of human topo II (added last). After a 15-min incubation at 37° C., SDS-proteinase K was added, and following a 15 min incubation at 37° C., samples were extracted with CHCl3-isopropanol and electrophoresis was performed on a 1% agarose gel containing ethidium bromide. Gels were photographed, and photographic negatives were scanned.

Assay [1] deals with T2, human topo I (Homo sapiens, UniProt P11387).
T2 construct: purchased Topogen (Columbus, Ohio)
T2 sequence (P11387 1-765): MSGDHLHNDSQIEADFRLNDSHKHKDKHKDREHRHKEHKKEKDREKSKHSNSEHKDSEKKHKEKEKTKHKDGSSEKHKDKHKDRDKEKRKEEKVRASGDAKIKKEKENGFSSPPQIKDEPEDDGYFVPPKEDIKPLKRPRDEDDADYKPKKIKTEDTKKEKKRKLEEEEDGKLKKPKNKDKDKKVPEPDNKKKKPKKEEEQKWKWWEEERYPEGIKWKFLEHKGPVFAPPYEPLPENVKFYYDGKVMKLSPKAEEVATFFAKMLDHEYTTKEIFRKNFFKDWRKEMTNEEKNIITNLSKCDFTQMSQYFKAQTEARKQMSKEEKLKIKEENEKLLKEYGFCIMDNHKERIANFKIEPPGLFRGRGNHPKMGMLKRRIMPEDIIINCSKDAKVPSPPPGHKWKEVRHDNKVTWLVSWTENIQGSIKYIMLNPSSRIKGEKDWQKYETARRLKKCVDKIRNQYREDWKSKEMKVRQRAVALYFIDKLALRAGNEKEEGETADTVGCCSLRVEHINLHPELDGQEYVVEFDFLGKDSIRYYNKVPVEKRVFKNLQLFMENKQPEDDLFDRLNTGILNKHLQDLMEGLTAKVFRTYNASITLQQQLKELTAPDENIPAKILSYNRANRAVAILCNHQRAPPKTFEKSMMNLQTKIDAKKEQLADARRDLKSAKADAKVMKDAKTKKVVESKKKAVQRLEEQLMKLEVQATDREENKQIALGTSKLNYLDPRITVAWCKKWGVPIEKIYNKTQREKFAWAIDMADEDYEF
Description: Topo I-mediated plasmid relaxation assay. The settings on record: 10 μg/ml.
Description: Topo I activity was determined by converting supercoiled pUC8 DNA (SC) into its relaxed from (REL).
For the determination of topoisomerase (topo) I catalytic activity, pUC8 DNA was used as the substrate in a reaction volume of 20 μl containing the following: 10 mM Tris-HCl, pH 7.9, 1 mM EDTA, 150 mM NaCl, 0.1% BSA, 0.1 mM spermidine, 5% glycerol, and 2 units of purified human topo I. The inhibitor, when applicable, was added as indicated, and the reaction was initiated by the addition of the enzyme. Reactions were carried out at 37° C. for 30 min. Gel electrophoresis was performed at 4 V/cm for 5 h in Tris-borate-EDTA buffer. For the quantitative determination of topo I activity, photographic negatives were scanned. The area representing supercoiled DNA, migrating as a single band at the bottom of the gel, was determined. The concentrations of the inhibitor that prevented 50% of the supercoiled DNA from being converted into relaxed DNA (IC50 values) were determined by averaging the data from at least three experiments.

The target in assay [2] is T2, human topo I. Kind of assay: Topo I-mediated plasmid-nicking assay. The settings on record: 10 and 100 μg/ml (FIG. 4 lanes 5 and 6).
Description: Single-strand DNA breakage was determined by converting relaxed (REL) or supercoiled (SC) pUC8 DNA to the nicked form (NIC).
Under the electrophoretic conditions that were used in the experiment shown in FIG. 4, covalently closed circular (supercoiled or relaxed) plasmid DNA migrates on the bottom of the gel. In the presence of a topo I poison that stabilises the cleavable complex, and following denaturation and degradation of the enzyme with proteinase K/SDS, the resulting nicked DNA migrates on the top of the gel.
Topo I poisons enhance topo I-mediated pUC8 DNA cleavage under the reaction conditions provided by the supplier of the enzyme (Topogen, Inc.). Briefly, 20 μl of reaction mixtures contained 10 mM Tris-HCl, pH 7.5, 1 mM EDTA, 100 mM NaCl, 1 μl of the test agent (or solvent), 0.5 μg of pUC8, and 10 units of human topo I (added last). After a 30-min incubation at 37° C., SDS-proteinase K was added, and, following a 30-min incubation at 37° C., samples were extracted with CHCl3-isopropanol and electrophoresed on a 1% agarose gel containing 0.5 μg/ml ethidium bromide. Gels were photographed, and photographic negatives were scanned.

T1 sequence (P11388 whole entry): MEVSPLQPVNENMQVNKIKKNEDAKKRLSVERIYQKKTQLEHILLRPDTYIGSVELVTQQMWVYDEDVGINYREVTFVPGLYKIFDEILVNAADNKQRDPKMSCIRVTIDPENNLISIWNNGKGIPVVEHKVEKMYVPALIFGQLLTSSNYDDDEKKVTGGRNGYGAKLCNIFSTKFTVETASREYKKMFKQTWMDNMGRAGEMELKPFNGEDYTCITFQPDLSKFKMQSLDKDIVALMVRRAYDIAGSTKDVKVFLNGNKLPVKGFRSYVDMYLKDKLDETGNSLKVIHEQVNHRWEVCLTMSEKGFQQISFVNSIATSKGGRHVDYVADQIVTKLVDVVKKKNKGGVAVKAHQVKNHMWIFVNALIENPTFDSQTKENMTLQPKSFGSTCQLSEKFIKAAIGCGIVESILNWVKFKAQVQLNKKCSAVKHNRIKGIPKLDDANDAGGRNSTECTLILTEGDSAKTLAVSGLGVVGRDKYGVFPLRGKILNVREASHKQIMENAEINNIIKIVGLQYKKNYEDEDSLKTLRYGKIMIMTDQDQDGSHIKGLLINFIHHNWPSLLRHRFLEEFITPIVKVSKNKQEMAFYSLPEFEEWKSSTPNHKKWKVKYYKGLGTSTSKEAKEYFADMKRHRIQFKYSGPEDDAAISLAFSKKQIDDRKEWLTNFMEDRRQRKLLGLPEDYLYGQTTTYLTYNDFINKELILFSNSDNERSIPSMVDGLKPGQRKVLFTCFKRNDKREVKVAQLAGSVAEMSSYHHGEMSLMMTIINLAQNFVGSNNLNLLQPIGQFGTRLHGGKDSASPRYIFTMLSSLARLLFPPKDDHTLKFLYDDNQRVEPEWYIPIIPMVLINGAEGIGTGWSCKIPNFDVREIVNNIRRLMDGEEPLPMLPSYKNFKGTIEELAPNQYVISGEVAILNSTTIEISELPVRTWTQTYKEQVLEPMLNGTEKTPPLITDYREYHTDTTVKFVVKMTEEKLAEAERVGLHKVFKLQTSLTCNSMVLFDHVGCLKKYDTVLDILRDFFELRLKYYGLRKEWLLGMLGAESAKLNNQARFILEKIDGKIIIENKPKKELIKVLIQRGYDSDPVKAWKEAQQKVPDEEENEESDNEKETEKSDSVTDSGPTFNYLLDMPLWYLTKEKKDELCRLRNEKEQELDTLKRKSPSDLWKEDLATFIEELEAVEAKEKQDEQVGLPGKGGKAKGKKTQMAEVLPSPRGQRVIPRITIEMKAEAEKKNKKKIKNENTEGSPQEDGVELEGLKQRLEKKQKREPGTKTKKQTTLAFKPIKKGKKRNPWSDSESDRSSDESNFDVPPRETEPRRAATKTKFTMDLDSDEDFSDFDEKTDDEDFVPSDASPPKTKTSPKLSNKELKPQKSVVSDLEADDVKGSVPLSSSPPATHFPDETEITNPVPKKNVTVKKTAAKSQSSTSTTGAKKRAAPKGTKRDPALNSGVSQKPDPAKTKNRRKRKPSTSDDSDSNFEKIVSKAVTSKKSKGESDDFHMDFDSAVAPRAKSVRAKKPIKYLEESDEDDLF

Turning to `O=c1c(-c2ccc(O)cc2)coc2cc(O)cc(O)c12` [genistein, reference compound], the “concentration producing detectable (comparable) topo II-mediated linear plasmid DNA” value on human topo II was found to be 30 µg/mL.

For the compound `CC[C@@]1(O)C(=O)OCc2c1cc1n(c2=O)Cc2cc3ccccc3nc2-1` [Camptothecin, reference compound], the “inhibition of topo I-catalysed relaxation of pUC8 DNA (positive control)” value on human topo I [1] is given as “prevents pUC8 DNA relaxation”. Also, the “topo I-mediated single-strand DNA breakage (nicked DNA), positive control” value on human topo I [2] is reported as “produced single-strand DNA cleavage”.
